Test system: human knee osteoarthritis patients
Assay: Randomized placebo-controlled double-blind trial, WOMAC A (pain) evaluation by VAS
Format: in vivo
Conditions: 12 weeks after initial administration; for WOMAC-A Change (average change from baseline): MMRM estimate
Experimental: The effectiveness of the investigational drug (test drug (composition for treating joint disease of invention) or placebo) when administered 3 times at four-week intervals in the knee joint cavities of human knee osteoarthritis patients was investigated by a multi-center collaborative, randomized, placebo-controlled, double-blind, parallel-group comparison trial. The test drug and placebo were as follows:
Test drug: 3 mL of aqueous solution for injection containing 30 mg of test substance (3.6 mg as diclofenac);
The total amount (3 mL) of the test drug or placebo was administered (injected) into the knee joint cavities of the affected knees of the target patients on week 0, week 4 and week 8 for a total of three injections.
Effectiveness was evaluated by the following evaluation methods at the time of the initial administration and at evaluation points 1, 2, 4, 6, 8, 10 and 12 weeks after the initial administration.
Effectiveness was evaluated using the WOMAC® evaluation (The Journal of Rheumatology 1988; 15:12, p. 1833-1840) developed by Dr. Nicholas Bellamy. The WOMAC(r) evaluation has been established as a method for evaluating osteoarthritis (The Journal of Rheumatology 2000; 27:11, p. 2635-2641).
The patient response method used the VAS (Visual Analog Scale). With the VAS, the degree of a patient's own feelings in response to each question is indicated by the patient on a 100 mm line, and the degree is evaluated according to the position on the line. Position is represented as length from the left end of the scale. For example, a patient is asked the same question about pain in evaluations before and after administration, and the patient responds by indicating a position (degree) on the scale. Numerical values for improvement are then obtained based on the difference between the length indicated by the patient before administration (baseline) and the length indicated by the patient during each evaluation after administration.
The improvement effects were quantified based on the difference between the length indicated by the patient before administration (baseline) and the length indicated by the patient at the time of each evaluation after administration. The analysis results for questions about pain (WOMAC® A: evaluates intensity of pain during walking, etc.) are shown in Table 1 below. In the table, the lower the value of the change difference below 0, the greater the improvement effect.

Sodium hyaluronate with introduced aminoethanol-diclofenac [Test Drug]
WOMAC-A Change difference (test drug group minus placebo group) (patients with 25 ≤ BMI and 26 ≤ DP (weeks)): −13.7
WOMAC-A Change (average change from baseline) (patients with 25 ≤ BMI and 26 ≤ DP (weeks), VAS 100 mm line): −30.7
WOMAC-A Change difference (test drug group minus placebo group) (patients with 25 ≤ BMI and 26 ≤ DP (weeks), listed as test drug): extremely great improvement effect
WOMAC-A Change difference (test drug group minus placebo group) (patients with BMI 25≤ kg/m^2): −13.4
WOMAC-A Change (average change from baseline) (patients with BMI 25≤ kg/m^2, VAS 100 mm line): −32.6
WOMAC-A Change difference (test drug group minus placebo group) (patients with BMI <25 and/or DP <26 weeks): −3.2
WOMAC-A Change (average change from baseline) (patients with BMI <25 and/or DP <26 weeks, VAS 100 mm line): −27.2
WOMAC-A Change difference (test drug group minus placebo group) (patients with BMI <25 kg/m^2): −2.1
WOMAC-A Change (average change from baseline) (patients with BMI <25 kg/m^2, VAS 100 mm line): −25.2
WOMAC-A Change (average change from baseline) (whole group, 30 mg test substance intra-articular at weeks 0, 4, 8, VAS 100 mm line): −28.7
WOMAC-A Change difference (test drug group minus placebo group) (whole group, VAS 100 mm line): −7.0

Source: patent US10925839B2, “Composition for treating joint disease and kit containing same” (SEIKAGAKU CORPORATION, priority 2017, dated 2021)
